Where “and” joins values, the source holds several entries; their conditions need not be identical. Equal values may be shown once.
Assays:
Assay type in all cases: cell-based
[1] = biological target: T1, 320 non-olfactory GPCRs (Homo sapiens, UniProt P08173)
T1 construct: expressed in transfected cells; host or cells: HTLA cells

[2] = biological target: T2, 320 non-olfactory GPCRs (Homo sapiens, UniProt O95838)
T2 construct: expressed in transfected cells; host or cells: HTLA cells

[3] = biological target: T3, 320 non-olfactory GPCRs (Homo sapiens, UniProt P25089)
T3 construct: expressed in transfected cells; host or cells: HTLA cells
T3 sequence (P25089 whole entry): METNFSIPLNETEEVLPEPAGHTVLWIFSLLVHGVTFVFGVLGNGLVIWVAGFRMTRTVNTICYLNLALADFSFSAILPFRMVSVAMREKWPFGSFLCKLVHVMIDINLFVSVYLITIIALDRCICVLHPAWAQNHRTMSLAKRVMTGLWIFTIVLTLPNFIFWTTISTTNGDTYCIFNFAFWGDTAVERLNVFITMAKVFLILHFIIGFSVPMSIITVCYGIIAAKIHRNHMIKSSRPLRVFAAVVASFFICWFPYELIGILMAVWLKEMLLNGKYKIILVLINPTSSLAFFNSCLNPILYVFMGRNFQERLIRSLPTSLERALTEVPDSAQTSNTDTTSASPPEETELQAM

[4] = biological target: T4, 320 non-olfactory GPCRs (Homo sapiens, UniProt Q9Y5X5); settings: receptor NPFF2; replicate values, Fig_4g
T4 construct: expressed in transfected cells; host or cells: HTLA cells
T4 sequence (Q9Y5X5 whole entry): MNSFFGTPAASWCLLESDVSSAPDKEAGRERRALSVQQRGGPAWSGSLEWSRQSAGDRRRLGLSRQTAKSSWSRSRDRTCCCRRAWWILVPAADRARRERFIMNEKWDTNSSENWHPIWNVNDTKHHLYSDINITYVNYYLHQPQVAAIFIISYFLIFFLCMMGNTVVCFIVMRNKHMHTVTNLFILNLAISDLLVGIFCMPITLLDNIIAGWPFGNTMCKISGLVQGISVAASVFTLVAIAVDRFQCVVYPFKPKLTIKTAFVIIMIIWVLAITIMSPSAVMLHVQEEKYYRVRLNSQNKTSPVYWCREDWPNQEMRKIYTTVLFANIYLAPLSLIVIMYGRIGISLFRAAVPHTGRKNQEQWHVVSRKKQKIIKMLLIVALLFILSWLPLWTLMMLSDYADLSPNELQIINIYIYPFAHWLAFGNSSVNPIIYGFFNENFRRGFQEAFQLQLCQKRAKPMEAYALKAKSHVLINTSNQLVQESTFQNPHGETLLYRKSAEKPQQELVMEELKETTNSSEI
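For Fold of Basal in this document: compound tested at 1 µM final concentration.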
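For GPCRome agonism screen response in this document: fold over basal response of each receptor without drug.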

T2 sequence (O95838 whole entry): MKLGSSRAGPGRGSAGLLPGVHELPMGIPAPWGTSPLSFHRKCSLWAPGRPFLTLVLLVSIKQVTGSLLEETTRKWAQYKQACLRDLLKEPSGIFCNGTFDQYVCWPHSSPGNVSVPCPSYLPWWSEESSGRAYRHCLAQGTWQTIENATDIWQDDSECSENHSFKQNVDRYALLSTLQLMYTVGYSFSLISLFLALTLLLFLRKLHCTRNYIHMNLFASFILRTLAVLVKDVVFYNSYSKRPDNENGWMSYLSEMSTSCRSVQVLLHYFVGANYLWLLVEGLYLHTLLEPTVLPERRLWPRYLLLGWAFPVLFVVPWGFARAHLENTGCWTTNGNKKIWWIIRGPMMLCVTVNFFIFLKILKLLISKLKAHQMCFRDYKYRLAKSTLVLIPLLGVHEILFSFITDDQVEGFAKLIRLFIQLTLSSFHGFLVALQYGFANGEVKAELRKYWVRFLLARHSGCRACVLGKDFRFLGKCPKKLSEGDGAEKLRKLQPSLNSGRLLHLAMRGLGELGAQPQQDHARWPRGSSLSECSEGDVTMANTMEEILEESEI
T1 sequence (P08173 whole entry): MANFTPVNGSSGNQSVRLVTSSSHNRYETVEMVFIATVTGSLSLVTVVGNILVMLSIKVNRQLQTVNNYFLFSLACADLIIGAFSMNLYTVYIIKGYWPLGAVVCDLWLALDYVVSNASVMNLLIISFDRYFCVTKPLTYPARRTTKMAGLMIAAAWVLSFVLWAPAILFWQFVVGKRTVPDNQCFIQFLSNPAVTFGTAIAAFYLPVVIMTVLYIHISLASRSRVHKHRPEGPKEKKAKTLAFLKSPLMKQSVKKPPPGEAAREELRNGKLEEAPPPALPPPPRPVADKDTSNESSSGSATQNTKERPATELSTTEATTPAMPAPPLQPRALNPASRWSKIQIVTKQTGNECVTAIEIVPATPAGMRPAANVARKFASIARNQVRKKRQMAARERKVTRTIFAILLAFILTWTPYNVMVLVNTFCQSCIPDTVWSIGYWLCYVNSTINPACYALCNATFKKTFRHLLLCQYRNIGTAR

## CCOc1cccc2cc(C(C)NCC3(O)CCCCC3)oc12 (stereo not shown) [O4LE6]
[1]
  Fold of Basal: 0.6531 and 0.5382 and 0.5491 and 0.5885
[2]
  Fold of Basal: 0.5783 and 0.9087 and 0.8921 and 0.8331
[3]
  Fold of Basal: 1.168 and 1.052 and 1.054 and 1.032
[4]
  GPCRome agonism screen response: 1.684 and 1.1 and 0.9323 and 0.6942

From PMC7044277 (Nature Communications, 2020)
